Reference: patent publication US20260091123A1, “COMBINATION OF ANTI-B7-H3 ANTIBODY-DRUG CONJUGATE AND ATR INHIBITOR OR ATM INHIBITOR” (DAIICHI SANKYO COMPANY, LIMITED, priority 2023, published 2026)

Key:
[1] = test system: human prostate carcinoma epithelial cell line, 22Rv1; test: In vivo antitumor activity, combination with ATM inhibitor, 22Rv1 xenograft (Test Example 5); design: species or system mice; settings: day 29
Description: All animal experiments were performed in accordance with the in-house guidelines of the Institutional Animal Care and Use Committee of Daiichi Sankyo Co., Ltd. The human prostate carcinoma epithelial cell line, 22Rv1 was purchased from American Type Culture Collection (ATCC) and cultured in RPMI 1640 Medium (ATCC modification) (Thermo Fisher Scientific) supplemented with 10% heat-inactivated fetal bovine serum (FBS, cytiva) at 37° C. in a humidified 5% CO2 atmosphere. On the day of cancer cell inoculation, 22Rv1 cells were trypsinized, washed with D-PBS, and then resuspended in D-PBS at a concentration of 5×10^7 cells/mL. Castrated male NSG mice (NOD.Cg-Prkdc^scid Il2rg^tm1Wj1/SzJ, 6 weeks of age, The Jackson Laboratory Japan, Inc.) were subcutaneously inoculated with 22Rv1 cells (5×10^6 cells/mouse) into the right flank. […] Vehicle control • Group 2: AZD1390 20 mg/kg • Group 3: […] A (10 mmol/L histidine buffer [pH5.9] containing 9% sucrose and 0.02% polysorbate 20) to prepare a 0.3 mg/mL dosing solution. To prepare a 2.0 mg/mL dosing solution, AZD1390 was dissolved in Soln. […] The volume of each dosing solution to be administered was calculated from the individual body weight measured on the day of dosing. […] Tumor length and tumor width were measured with a digital caliper. Tumor volume and tumor growth inhibition (TGI) were calculated by the following formulas: […] […]

[2] = test system: human prostate carcinoma epithelial cell line, 22Rv1; test: In vivo antitumor activity, combination with ATR inhibitor, 22Rv1 xenograft (Test Example 4); design: species or system mice; settings: day 24
Description: All animal experiments were performed in accordance with the in-house guidelines of the Institutional Animal Care and Use Committee of Daiichi Sankyo Co., Ltd. […] Vehicle control • Group 2: AZD6738 25 mg/kg • Group 3: […] A (10 mmol/L histidine buffer [pH5.9] containing 9% sucrose and 0.02% polysorbate 20) to prepare a 0.3 mg/mL dosing solution. […] Then, propylene glycol (40% [v/v] of total volume of the dosing solution) was added to the solution. After mixing with a magnetic stirrer well, water for injection (50% [v/v] of total volume of the dosing solution) was added to the solution, and then the solution was further mixed well with a magnetic stirrer. The volume of each dosing solution to be administered was calculated based on the individual body weight measured on the day of dosing. Soln. […] Soln. […] Tumor length and tumor width were measured with a digital caliper. Tumor volume and tumor growth inhibition (TGI) were calculated by the following formulas: […] Dunnett's test was used to compare tumor volumes in monotherapy groups with those in the vehicle control and to compare tumor volumes in monotherapy groups with those in the combination group. […] The following calculation of TGI and statistical analyses were performed using data except for the excluded mouse in Group 4.

Row | Compound | tumor growth inhibition (TGI) ([1]; 22Rv1 in castrated male NSG mice, AZD1390 20 mg/kg orally, conjugate (1) 3 mg/kg iv days 0 and 14) [%] | tumor growth / antitumor activity compared with the vehicle control ([1]; monotherapies, Dunnett's test) | tumor growth inhibition (TGI) ([2]; 22Rv1 in castrated male NSG mice, AZD6738 25 mg/kg orally twice a day, conjugate (1) 3 mg/kg iv days 0 and 15) [%] | tumor growth compared with the vehicle control ([2]; monotherapies, Dunnett's test)
1 | CC(C)n1c(=O)n(C)c2cnc3cc(F)c(-c4ccc(OCCCN5CCCCC5)nc4)cc3c21 [AZD1390] | 14 | no statistically significant difference in antitumor activity | – | –
2 | C[C@@H]1COCCN1c1cc(C2([S@](C)(=N)=O)CC2)nc(-c2cc[nH]c3nccc2-3)n1 [AZD6738] | – | – | 29 | significantly inhibited tumor growth
